Results on 28 compounds are retold here after US10098902B2, “Arginase inhibitors as therapeutics” (Mars, Incorporated, priority 2010, dated 2018).

The target of one assay is human arginase I (ARG I) (Homo sapiens (Human), UniProt P05089). Nature of the assay: Inhibition of arginase I, spectrophotometric urea assay at 530 nm. It counts as biochemical. Particulars: potency rank 1-5; pH 7.4, 37° C., 60 minutes. As for the experimental part:
(§1) Inhibition of arginase I (ARG I) and arginase II (ARG II) by Formula I or Formula II compounds is followed spectrophotometrically at 530 nm. The compound to be tested was dissolved in DMSO at an initial concentration 50-fold greater than its final concentration in the cuvette. 10 μl of the stock solution was diluted in 90 μl of the assay buffer that comprises 0.1M sodium phosphate buffer containing 130 mM NaCl, pH 7.4, to which is added ovalbumin (OVA) at a concentration of 1 mg/ml. Solutions of arginase I and II were prepared in 100 mM sodium phosphate buffer, pH 7.4 containing 1 mg/ml of OVA to give an arginase stock solution at a final concentration of 100 ng/ml.
(§2) To each well of a 96-well microtiter plate was added 40 μl of enzyme, 10 μl of an inventive compound and 10 μl of enzyme substrate (L-arginine+manganese sulfate). For wells that were used as positive controls, only the enzyme and its substrate were added, while wells used as negative controls contained only manganese sulfate.
(§3) After incubating the microtiter plate at 37° C. for 60 minutes, 150 μl of a urea reagent obtained by combining equal proportions (1:1) of reagents A and B is added to each well of the microtiter plate to stop the reaction. The urea reagent is made just before use by combining Reagent A (10 mM o-phthaldialdehyde, and 0.4% polyoxyethylene (23) lauryl ether (w/v) in 1.8 M sulfuric acid) with Reagent B (1.3 mM primaquine diphosphate, 0.4% polyoxyethylene (23) lauryl ether (w/v), 130 mM boric acid in 3.6 mM sulfuric acid). After quenching the reaction mixture, the microtiter plate is allowed to stand for an additional 10 minutes at room temperature to allow the color to develop. The inhibition of arginase was computed by measuring the optical density (OD) of the reaction mixture at 530 nm and normalizing the OD value to percent inhibition observed in the control. The normalized OD is then used to generate a dose-response curve by plotting the normalized OD values against log [concentration] and using regression analysis to compute the IC50 values.

In assay [1] the target is human arginase II (ARG II) (Homo sapiens (Human), UniProt P78540). Nature of the assay: Inhibition of arginase II, spectrophotometric urea assay at 530 nm. The assay is classed as biochemical. Particulars: potency rank 1-5; pH 7.4, 37° C., 60 minutes. As for the experimental part: as §1, §2, §3
human arginase II (ARG II), sequence (P78540 23-354): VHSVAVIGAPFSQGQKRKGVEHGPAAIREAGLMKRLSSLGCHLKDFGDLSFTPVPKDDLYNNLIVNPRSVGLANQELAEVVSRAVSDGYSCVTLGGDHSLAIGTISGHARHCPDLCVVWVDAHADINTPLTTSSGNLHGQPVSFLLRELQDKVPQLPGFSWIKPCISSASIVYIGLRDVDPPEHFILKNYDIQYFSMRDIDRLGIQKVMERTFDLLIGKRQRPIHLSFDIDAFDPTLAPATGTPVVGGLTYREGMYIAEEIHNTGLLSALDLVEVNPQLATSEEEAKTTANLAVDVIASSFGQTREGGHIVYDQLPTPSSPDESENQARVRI

SMILES strings stand for the structures. pIC50: −log10 of the molar value.

human arginase I (ARG I), sequence (P05089 whole entry): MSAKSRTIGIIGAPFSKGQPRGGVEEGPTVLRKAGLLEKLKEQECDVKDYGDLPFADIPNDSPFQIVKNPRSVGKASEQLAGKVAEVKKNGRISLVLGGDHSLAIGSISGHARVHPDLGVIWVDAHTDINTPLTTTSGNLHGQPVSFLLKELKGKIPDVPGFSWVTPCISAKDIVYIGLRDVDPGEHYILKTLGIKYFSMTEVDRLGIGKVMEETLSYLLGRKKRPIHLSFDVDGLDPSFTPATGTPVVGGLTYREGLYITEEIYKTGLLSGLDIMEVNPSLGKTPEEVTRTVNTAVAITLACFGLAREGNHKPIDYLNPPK

Usually pIC50 stands for the negative decadic logarithm of the IC50, by convention in mol/L. As for `N[C@@]1(C(=O)O)CN(CCCc2ccc(Cl)cc2)C[C@@H]1CCCB(O)O` [Example 22, (3R,4S)-3-amino-4-(3-boronopropyl)-1-(3-(4-chlorophenyl)propyl)pyrrolidine-3-carboxylic acid], the pIC50 (on human arginase I (ARG I); in assay [1]) was 6.00 to 6.60 in each case.

As to `N[C@@]1(C(=O)O)CN(c2ncnc3nc[nH]c23)C[C@@H]1CCCB(O)O` [Example 23, (3R,4S)-3-amino-4-(3-boronopropyl)-1-(7H-purin-6-yl)pyrrolidine-3-carboxylic acid], the pIC50 on human arginase I (ARG I) is 6.00 to 6.60; in assay [1], 5.70 to 6.00.

Turning to `NCCN1C[C@H](CCCB(O)O)[C@](N)(C(=O)O)C1` [Example 24, (3R,4S)-3-amino-1-(2-aminoethyl)-4-(3-boronopropyl)pyrrolidine-3-carboxylic acid], the pIC50 (on human arginase I (ARG I); in assay [1]) was 6.60 to 10.00 throughout.

Regarding `N[C@@]1(C(=O)O)CN(c2cncc(C(=O)O)c2)C[C@@H]1CCCB(O)O` [Example 25, 5-((3R,4S)-3-amino-4-(3-boronopropyl)-3-carboxypyrrolidin-1-yl)nicotinic acid], the negative-log IC50 (pIC50) (against human arginase I (ARG I); in assay [1]) was 6.00 to 6.60 each time.

For `N[C@@]1(C(=O)O)CN(C2CCNCC2)C[C@@H]1CCCB(O)O` [Example 26, (3R,4S)-3-amino-4-(3-boronopropyl)-1-(piperidin-4-yl)pyrrolidine-3-carboxylic acid], the pIC50 (against human arginase I (ARG I); in assay [1]) was 6.00 to 6.60 in each case.

On to `N[C@@]1(C(=O)O)CN(C2CCNC2)C[C@@H]1CCCB(O)O` (stereo partly drawn) [Example 27, (3R,4S)-3-amino-4-(3-boronopropyl)-1,3′-bipyrrolidine-3-carboxylic acid], for which the pIC50 (on human arginase I (ARG I); in assay [1]) was 6.60 to 10.00 throughout.

With `N[C@@]1(C(=O)O)CN(C2CCCNC2)C[C@@H]1CCCB(O)O` (stereo partly drawn) [Example 28, (3R,4S)-3-amino-4-(3-boronopropyl)-1-(piperidin-3-yl)pyrrolidine-3-carboxylic acid], the pIC50 against human arginase I (ARG I) is 6.60 to 10.00; in assay [1] it was 6.00 to 6.60.

As for `N[C@@]1(C(=O)O)CN(Cc2ccccn2)C[C@@H]1CCCB(O)O` [Example 29, (3R,4S)-3-amino-4-(3-boronopropyl)-1-(pyridin-2-ylmethyl)pyrrolidine-3-carboxylic acid], the pIC50 (against human arginase I (ARG I); in assay [1]) was 5.70 to 6.00 each time.

`N[C@@]1(C(=O)O)CN(C2CCC(C(=O)O)CC2)C[C@@H]1CCCB(O)O` (stereo partly drawn) [Example 30, (3R,4S)-3-amino-4-(3-boronopropyl)-1-(4-carboxycyclohexyl)pyrrolidine-3-carboxylic acid]: the values for the pIC50 (on human arginase I (ARG I); in assay [1]) were 6.00 to 6.60 and 5.70 to 6.00, respectively.

As to `Cn1ccnc1CN1C[C@H](CCCB(O)O)[C@](N)(C(=O)O)C1` [Example 31, (3R,4S)-3-amino-4-(3-boronopropyl)-1-((1-methyl-1H-imidazol-2-yl)methyl)pyrrolidine-3-carboxylic acid], the figures for the pIC50 (on human arginase I (ARG I); in assay [1]) were 6.60 to 10.00 and 6.00 to 6.60, respectively.

As to `Cc1ccncc1N1C[C@H](CCCB(O)O)[C@](N)(C(=O)O)C1` [Example 32, (3R,4S)-3-amino-4-(3-boronopropyl)-1-(4-methylpyridin-3-yl)pyrrolidine-3-carboxylic acid], the negative logarithm of the IC50 (pIC50) (against human arginase I (ARG I); in assay [1]) was 5.70 to 6.00 throughout.

Consider `N[C@@]1(C(=O)O)CN(CCN2CCCCC2)C[C@@H]1CCCB(O)O` [Example 33, (3R,4S)-3-amino-4-(3-boronopropyl)-1-(2-(piperidin-1-yl)ethyl)pyrrolidine-3-carboxylic acid], for which the negative-log IC50 (pIC50) against human arginase I (ARG I) is 6.60 to 10.00; in assay [1], 6.00 to 6.60.

Turning to `CCN(CC)CCN1C[C@H](CCCB(O)O)[C@](N)(C(=O)O)C1` [Example 34, (3R,4S)-3-amino-4-(3-boronopropyl)-1-(2-(diethylamino)ethyl)pyrrolidine-3-carboxylic acid], the negative logarithm of the IC50 (pIC50) against human arginase I (ARG I) is 6.60 to 10.00; in assay [1] it was 6.00 to 6.60.

Turning to `CN[C@@]1(C(=O)O)CNC[C@@H]1CCCB(O)O` [Example 35, (3R,4S)-4-(3-boronopropyl)-3-(methylamino)pyrrolidine-3-carboxylic acid], the pIC50 (on human arginase I (ARG I); in assay [1]) was 6.00 to 6.60 in each case.

In the case of `CN1CCCCC1CN1C[C@H](CCCB(O)O)[C@](N)(C(=O)O)C1` (stereo partly drawn) [Example 36, (3R,4S)-3-amino-4-(3-boronopropyl)-1-((1-methylpiperidin-2-yl)methyl)pyrrolidine-3-carboxylic acid], the pIC50 against human arginase I (ARG I) was 6.60 to 10.00; in assay [1], 6.00 to 6.60.

Turning to `N[C@@]1(C(=O)O)CN(CC2CCCN2)C[C@@H]1CCCB(O)O` (stereo partly drawn) [Example 37, (3R,4S)-3-amino-4-(3-boronopropyl)-1-(pyrrolidin-2-ylmethyl)pyrrolidine-3-carboxylic acid], the pIC50 against human arginase I (ARG I) is 6.60 to 10.00; in assay [1] it was 6.00 to 6.60.

With `N[C@@]1(C(=O)O)CN(CCN2CCCC2)C[C@@H]1CCCB(O)O` [Example 38, (3R,4S)-3-amino-4-(3-boronopropyl)-1-(2-(pyrrolidin-1-yl)ethyl)pyrrolidine-3-carboxylic acid], the pIC50 (on human arginase I (ARG I); in assay [1]) was 6.60 to 10.00 throughout.

As to `N[C@@]1(C(=O)O)CN(C[C@@H]2Cc3ccccc3CN2)C[C@@H]1CCCB(O)O` [Example 39, (3R,4S)-3-amino-4-(3-boronopropyl)-1-(((S)-1,2,3,4-tetrahydroisoquinolin-3-yl)methyl)pyrrolidine-3-carboxylic acid], the pIC50 (against human arginase I (ARG I); in assay [1]) was 6.60 to 10.00 in each case.

With `N[C@@]1(C(=O)O)CN(CCNCc2ccccc2)C[C@@H]1CCCB(O)O` [Example 40, (3R,4S)-3-amino-1-(2-(benzylamino)ethyl)-4-(3-boronopropyl)pyrrolidine-3-carboxylic acid], the pIC50 (against human arginase I (ARG I); in assay [1]) was 6.60 to 10.00 throughout.

`N[C@@]1(C(=O)O)CN(CCNCc2ccc(Cl)c(Cl)c2)C[C@@H]1CCCB(O)O` [Example 41, (3R,4S)-3-amino-4-(3-boronopropyl)-1-(2-(3,4-dichlorobenzylamino)ethyl)pyrrolidine-3-carboxylic acid]: the pIC50 (against human arginase I (ARG I); in assay [1]) was 6.60 to 10.00 throughout.

On to `N[C@@]1(C(=O)O)CN(C(=O)Nc2ccc(Cl)cc2)C[C@@H]1CCCB(O)O` [Example 42, (3R,4S)-3-amino-4-(3-boronopropyl)-1-(4-chlorophenylcarbamoyl)pyrrolidine-3-carboxylic acid], for which the pIC50 (against human arginase I (ARG I); in assay [1]) was 6.00 to 6.60 each time.

Regarding `N[C@@]1(C(=O)O)CN(C(=O)[C@@H]2CCCN2)C[C@@H]1CCCB(O)O` [Example 43, (3R,4S)-3-amino-4-(3-boronopropyl)-1-((S)-pyrrolidine-2-carbonyl)pyrrolidine-3-carboxylic acid], the negative logarithm of the IC50 (pIC50) against human arginase I (ARG I) was 6.60 to 10.00; in assay [1], 6.00 to 6.60.

As to `NC1CCCCC1N1C[C@H](CCCB(O)O)[C@](N)(C(=O)O)C1` (stereo partly drawn) [Example 44, (3R,4S)-3-amino-1-(2-aminocyclohexyl)-4-(3-boronopropyl)pyrrolidine-3-carboxylic acid], the pIC50 (on human arginase I (ARG I); in assay [1]) was 6.60 to 10.00 throughout.

As to `N[C@@]1(C(=O)O)CN(C(=O)Cc2ccc(Cl)cc2)C[C@@H]1CCCB(O)O` [Example 45, (3R,4S)-3-amino-4-(3-boronopropyl)-1-(2-(4-chlorophenyl)acetyl)pyrrolidine-3-carboxylic acid], the pIC50 (against human arginase I (ARG I); in assay [1]) was 6.00 to 6.60 throughout.

In the case of `COc1ccc(C(=O)N2C[C@H](CCCB(O)O)[C@](N)(C(=O)O)C2)cc1` [Example 47, (3R,4S)-3-amino-4-(3-boronopropyl)-1-(4-methoxybenzoyl)pyrrolidine-3-carboxylic acid], the negative logarithm of the IC50 (pIC50) (against human arginase I (ARG I); in assay [1]) was 6.00 to 6.60 in each case.

Consider `N[C@@]1(C(=O)O)CN(CC2Cc3ccc(Cl)cc3CN2)C[C@@H]1CCCB(O)O` (stereo partly drawn) [Example 49, (3R,4S)-3-amino-4-(3-boronopropyl)-1-((7-chloro-1,2,3,4-tetrahydroisoquinolin-3-yl)methyl)pyrrolidine-3-carboxylic acid], for which the pIC50 (on human arginase I (ARG I); in assay [1]) was 6.60 to 10.00 throughout.

As for `Nc1ccccc1S(=O)(=O)N1C[C@H](CCCB(O)O)[C@](N)(C(=O)O)C1` [Example 50, (3R,4S)-3-amino-1-(2-aminophenylsulfonyl)-4-(3-boronopropyl)pyrrolidine-3-carboxylic acid], the negative-log IC50 (pIC50) on human arginase I (ARG I) is 6.00 to 6.60; in assay [1], 5.70 to 6.00.

As for `N[C@@]1(C(=O)O)CN(CC2Cc3cc(Cl)ccc3CN2)C[C@@H]1CCCB(O)O` (stereo partly drawn) [Example 51, (3R,4S)-3-amino-4-(3-boronopropyl)-1-((6-chloro-1,2,3,4-tetrahydroisoquinolin-3-yl)methyl)pyrrolidine-3-carboxylic acid], the pIC50 (against human arginase I (ARG I); in assay [1]) was 6.60 to 10.00 throughout.
